Assay results taken from patent US8129527B2, “Analogs of dehydrophenylahistins and their therapeutic use” (Nereus Pharmacuticals, Inc., priority 2006, dated 2012).
Converted amounts (≈) assume the structure as drawn. Read-outs that look alike come from different tables or passages of the source. Marks after values point to notes of the source that are not given here.

How the values were obtained:
HuVEC = assay: Action on microtubule function, α-tubulin staining; conditions: 2 μM, thirty minutes exposure
[1] = tested on: HL-60/MX-2 (Mitoxantrone-Resistant); assay: Drug resistant cell line pair, cytotoxicity (Example 10B); assay type: cell-based, human; conditions: Homo sapiens, HL60/MX2; HL-60 Resistant (HL-60/MX-2)
From the text: (§1) 2) Human Acute Promyelocytic Leukemia Cell Line Pair: HL-60 (Mitoxantrone-Sensitive) and HL-60/MX-2 (Mitoxantrone-Resistant)

[2] = tested on: HL-60 (Mitoxantrone-Sensitive) human acute promyelocytic leukemia; assay: as above; assay type: cell-based; conditions: HL-60 Sensitive
From the text: as §1

[3] = tested on: MDA-MB-231 (human breast tumor); assay: Tumor panel screen cytotoxicity (Example 10A); assay type: cell-based; conditions: MDA-MB-231 Breast
From the text: (§2) Cells were maintained at subconfluent densities in their respective culture media.

[4] = tested on: NCI-H292 (human non-small cell lung tumor); assay: Tumor panel screen cytotoxicity (Example 10A); assay type: cell-based
From the text: as §2

[5] = tested on: PC3 (human prostate tumor); assay: Tumor panel screen cytotoxicity (Example 10A); assay type: cell-based; conditions: PC-3 Prostate
From the text: as §2

[6] = Tumor panel screen cytotoxicity (Example 10A); assay type: cell-based, human; conditions: human, CCD-27sk normal fibroblast cells; CCD-27sk Fibroblast; maximum cytotoxic effect
From the text: as §2

HT29 (human colon tumor) = assay: Tumor panel screen cytotoxicity (Example 10A); assay type: cell-based; conditions: HT-29 Colon
From the text: as §2

[7] = tested on: OVCAR-3 (human ovarian tumor); assay: Tumor panel screen cytotoxicity (Example 10A); assay type: cell-based; conditions: OVCAR-3 Ovary
From the text: as §2

[8] = tested on: B16-F10 (murine melanoma); assay: Tumor panel screen cytotoxicity (Example 10A); assay type: cell-based
From the text: as §2

[9] = tested on: CCD-27sk (normal human fibroblast); assay: Tumor panel screen cytotoxicity (Example 10A); assay type: cell-based; conditions: Homo sapiens; CCD-27sk Fibroblast
From the text: as §2

[10] = tested on: MES-SA (Taxol Sensitive) human uterine sarcoma; assay: Drug resistant cell line pair, cytotoxicity (Example 10B); assay type: cell-based
From the text: (§3) 1) Human Uterine Sarcoma Tumor Cell Line Pair: MES-SA (Taxol Sensitive) and MES-SA/Dx5 (Taxol Resistant).

[11] = tested on: MES-SA/Dx5 (Taxol Resistant) human uterine sarcoma; assay: as above; assay type: cell-based
From the text: as §3

Candida glabrata = assay: Antifungal susceptibility testing, broth dilution (MIC/MFC); assay type: cell-based; conditions: Nakaseomyces glabratus; C. glabrata; read-out: MIC
Outline: (§4)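 Tested against two isolates per species (one for C. glabrata). After MIC, fungicidal concentration determined by plating 0.1 μl from MIC and each higher concentration.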

Candida albicans = assay: as above; assay type: cell-based; conditions: Candida albicans; C. albicans 90028; read-out: MIC
Outline: as §4

Aspergillus fumigatus = assay: as above; assay type: cell-based; conditions: Aspergillus fumigatus; for MIC: read-out: MIC
Outline: as §4

MCF-7 human breast tumor = assay: MCF-7 Human Breast Tumor Xenograft Model; assay type: in vivo, nude mice; conditions: in combination with taxotere
Protocol: Animals used were (exceptions are indicated for individual studies): female nude mice (nu/nu) between 5 and 6 weeks of age (˜20 g, Harlan); group size was 9-10 mice per group unless otherwise indicated.
(§5) Selected novel compounds were administered as monotherapy via the intraperitoneal (i.p.) route at the doses indicated for the individual study; for the combination studies the selected reference chemotherapy agents were injected 15-30 min prior to the compound.
(§6) Saline dilutions are used to achieve the injection concentrations used for the reference compounds.
Female nude mice (˜20 g) were implanted s.c. with 21-day release estrogen (0.25 mg) pellets 24 hours prior to the s.c. implantation with MCF-7 tumor fragments (harvested from s.c. tumors in nude mice hosts). The study then proceeded as described for the HT-29 model, using taxotere as the standard chemotherapy agent.
In this model unless otherwise noted for the individual study, the novel compounds were injected via the intraperitoneal route daily on Days 1-5, inclusive (qdx5); taxotere was administered intravenously on Days 1, 3 and 5 (qodx3).
The doses of the compounds were administered on Days 1, 2, 3, 4, and 7; Taxotere was administered on Days 1, 3 and 7.

HT-29 human colon tumor = assay: HT-29 Human Colon Tumor Xenograft Model; assay type: in vivo
Protocol: as §5, §6
Animals were implanted subcutaneously (s.c.) by trocar with fragments of HT-29 tumors harvested from s.c. growing tumors in nude mice hosts. When the tumor size reached 5 mm×5 mm (about 10-17 days) the animals were matched into treatment and control groups. Mice were weighed twice weekly and tumor measurements were obtained using calipers twice weekly, starting on Day 1. The tumor measurements were converted to estimated mg tumor weight using the formula (W^2×L)/2. When the estimated tumor weight of the control group reached an average of 1000 mg the mice were weighed, sacrificed and the tumor removed.

[12] = tested on: MCF7 human breast carcinoma cells; assay: Mitotic progression (mitotic index); assay type: cell-based; conditions: 20 hours, read-out: Mitotic block Ave. IC50 ± sd
Protocol: The fraction of cells in mitosis at a given drug concentration (mitotic index) was determined in the breast cancer cell line MCF7. Cells were plated at a density of 3×10^4 cells/ml in six-well plates. After 24 hours, cells were incubated in the absence or presence of drug over a range of concentrations (1 nM to 1 μM) for 20 hours. […] Cells were fixed with 10% formalin in PBS overnight at 37° C., permeabilized in methanol for 10 minutes, and stained with 4,6-diamidino-phenylindole (DAPI) to visualize nuclei. Stained cells were spread on coverslips in Vectashield mounting media (Burlingame, Calif.) and sealed onto slides with nail polish. Fluorescence microscopy was used to determine mitotic indices.

[13] = tested on: MCF7 cells, GFP-alpha-tubulin; assay: Analysis of microtubule dynamics, time-lapse microscopy; assay type: cell-based, human
MAP-rich microtubules = assay: Microtubule mean length distributions, transmission electron microscopy; assay type: biochemical, bovine; conditions: in words
Protocol: Transmission electron microscopy was used to determine the mean length distribution of microtubules in the absence or presence of tested agent. At 75 minutes and prior to sedimentation, 10 μl aliquots from the polymer mass experiments were fixed by dilution into 290 μl PEM100-buffered 0.2% glutaraldehyde. Thirty microliters of fixed sample was settled onto formvar-coated 150 ICG mesh electron microscope grids for 90 seconds. Excess sample was wicked off with Whatman filter paper. Thirty microliters of cytochrome C (1 mg/ml) was applied for 30 seconds to enhance protofilament resolution and facilitate negative staining. Uranyl acetate (1.5%) was applied for 20 seconds and the excess was wicked off Grids were viewed in a Jeol electron microscope-1200 EX11 at 2000× and 30,000× magnification. The Zeiss MOPIII was used to determine microtubule length distributions and mean lengths for at least 100 microtubules per sample.

[14] = Table 28, concentration effecting 25% of the maximal mitotic block
[15] = Table 29, concentration effecting 50% of the maximal mitotic block

## CC(C)(C)c1[nH]cnc1/C=C1\NC(=O)[C@H](Cc2ccccc2)NC1=O [t-butyl-phenylahistin]
HuVEC
  microtubule depolymerization in HuVEC cells: induced microtubule depolymerization
[1]
  IC50: 175 nM
[2]
  IC50: 255 nM
[3]; Homo sapiens
  IC50: 387 nM
[3]; maximum cytotoxic effect
  % Cytotoxicity Mean: 65.5%
[4]; Homo sapiens
  IC50: 384 nM
[4]; maximum cytotoxic effect
  % Cytotoxicity Mean: 65%
[5]; Homo sapiens
  IC50: 174 nM
[5]; maximum cytotoxic effect
  % Cytotoxicity Mean: 59.5%
[6]
  cytotoxicity at 48 h: 45%
HT29 (human colon tumor); maximum cytotoxic effect
  % Cytotoxicity Mean: 88%
HT29 (human colon tumor); Homo sapiens
  IC50: 420 nM
[7]; Homo sapiens
  IC50: > 20000 nM
[7]; maximum cytotoxic effect
  % Cytotoxicity Mean: 37%
[8]; Mus musculus
  IC50: 736 nM
[8]; maximum cytotoxic effect
  % Cytotoxicity Mean: 74%
[9]
  IC50: > 20000 nM
[10]; Homo sapiens, MES-SA, CsA Pretreat, Studies II-III in separate lines
  IC50: 162 nM
[10]; Homo sapiens, MES-SA, No CsA, Studies I-III in separate lines
  IC50: 144 nM
[10]; No CsA, Studies I-III in separate lines
  IC50: 122 nM
[11]; Homo sapiens, MES-SA/Dx5, MES-SA/DX5 Resistant, CsA Pretreat, Studies II-III in separate lines
  IC50: 622 nM
[11]; Homo sapiens, MES-SA/Dx5, MES-SA/DX5 Resistant, No CsA, Studies I-III in separate lines
  IC50: 825 nM
[11]; MES-SA/DX5 Resistant, No CsA, Studies I-III in separate lines
  IC50: 694 nM
[11]; in words
  potency in the resistant MES-SA/DX5 line vs the sensitive line: only slightly reduced
Candida glabrata
  MIC: > 32 µg/mL
Candida albicans
  MIC: > 32 µg/mL
Aspergillus fumigatus; A. fumigatus isolate #1
  MIC: > 16 µg/mL
Aspergillus fumigatus; A. fumigatus isolate #2
  MFC: 0.125 µg/mL (≈ 0.369 µM)
  MIC: < 0.03 µg/mL
MCF-7 human breast tumor
  effect on estimated tumor growth: significant potentiation of taxotere
HT-29 human colon tumor; NPI compound + CPT-11 100 ip qwx3, study and dose as in the line
  Comments (combination with CPT-11): Synergy
HT-29 human colon tumor; Study 2139, monotherapy 30 mg/kg ip q3dx5
  NPI-Compound Result TGI %: No Effect
HT-29 human colon tumor; Study 2139, t-butyl-phenylahistin 30 mg/kg ip q3dx5 + CPT-11 100 ip qwx3
  Combination Results TGI %: 77.7 *, # %
HT-29 human colon tumor; which treatment group exceeds the criterion, NPI compound, CPT-11 100 ip qwx3 or combination, study and dose as in the line
  Exceed NCI Criterion (TGI ≧ 58%): Combination

## COc1ccc(/C=C\c2cc(OC)c(OC)c(OC)c2)cc1O [CA4, Combretastatin A4]
[12]
  IC50: 5.4 ± 0.7 nM
[13]; [14]
  % time spent, Attenuation: 39.50%
  % time spent, Growth: 35.31%
  % time spent, Shortening: 25.19%
  Freq. of Catastrophe: 1.52 min⁻¹
  Freq. of Rescue: 1.90 min⁻¹
  Mean duration, Attenuation: 0.45 min
  Mean duration, Growth: 0.27 min
  Mean duration, Shortening: 0.21 min
  Mean rates, Growth: 10.59 μm/min
  Mean rates, Shortening: 40.21 μm/min
[13]; Table 28, dynamicity, concentration effecting 25% of the maximal mitotic block
  Dyn.: 13.87 μm/min
[13]; [15]
  % time spent, Attenuation: 36.23%
  % time spent, Growth: 43.64%
  % time spent, Shortening: 20.13%
  Dynamicity: 10.91 μm/min
  Freq. of Catastrophe: 1.09 min⁻¹
  Freq. of Rescue: 2.79 min⁻¹
  Mean duration, Attenuation: 0.55 min
  Mean duration, Growth: 0.33 min
  Mean duration, Shortening: 0.22 min
  Mean rates, Growth: 11.21 μm/min
  Mean rates, Shortening: 29.88 μm/min
[13]; concentrations effecting 25% or 50% of maximal mitotic block
  MT dynamic instability: did not have a measurable effect on MT dynamic instability
MAP-rich microtubules
  MT nucleation: did not affect MT nucleation
